The subject of experiment [1] is Mus musculus. As to the kind of experiment: Area under the antinociceptive effect time curve after 2 mg/kg administration in mice. It is filed as functional.
The target of experiment [2] is T1, Mu-type opioid receptor (Rattus norvegicus, UniProt P33535). As to the kind of experiment: mu-2 receptor binding affinity in rat brain by 3H [d-Ala2, (N-Me)Phe4, Gly5-ol] enkephalin displacement. It is filed as tissue-based.
Experiment [3] addresses T1, Mu-type opioid receptor. As to the kind of experiment: mu-1 receptor binding affinity in rat brain by 3H [d-Ala2, d-Leu5] enkephalin displacement. In kind it is tissue-based.
The subject of experiment [4] is Mus musculus. In words: Area under the antinociceptive effect time curve after 4 mg/kg administration in mice. It is filed as functional.
For experiment [5], the system named is Mus musculus. As to the kind of experiment: Area under the antinociceptive effect time curve was determined after administration of 8 mg/kg in mice. In kind it is functional.

T1 sequence (P33535 whole entry): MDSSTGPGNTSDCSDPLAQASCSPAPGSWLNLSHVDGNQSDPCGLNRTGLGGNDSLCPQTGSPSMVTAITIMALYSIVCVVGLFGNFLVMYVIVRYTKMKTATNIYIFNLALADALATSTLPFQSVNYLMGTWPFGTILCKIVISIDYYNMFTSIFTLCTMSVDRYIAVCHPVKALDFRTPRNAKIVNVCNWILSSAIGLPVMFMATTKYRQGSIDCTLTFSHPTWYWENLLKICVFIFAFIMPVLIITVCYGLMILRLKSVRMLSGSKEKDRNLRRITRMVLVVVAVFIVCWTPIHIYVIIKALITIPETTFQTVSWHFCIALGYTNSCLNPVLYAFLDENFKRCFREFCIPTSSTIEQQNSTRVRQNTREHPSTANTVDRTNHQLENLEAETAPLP

The Ki is a dissociation constant, usually derived from enzyme kinetics or from competition with a known ligand. The low end stands for a stronger hold on the target, the high end for a looser hold on the target. Regarding `CN1CCC23c4c5ccc(O)c4O[C@H]2[C@@H](O[C@@H]2O[C@H](C(=O)O)[C@@H](O)[C@H]2O)C=C[C@H]3[C@H]1C5`, the values for the AUEC with Mus musculus [1], with Mus musculus [4] and in the experiment with Mus musculus [5] were -56 %·min, 797 A% min-1 and 596 A% min-1, respectively. Moreover, the Ki on Mu-type opioid receptor [2] came out at 44 nM; on Mu-type opioid receptor [3], 1.6 nM.
The matching figures for `O=C(O)[C@@H]1O[C@@H](O[C@H]2C=C[C@H]3[C@H]4Cc5ccc(O)c6c5C3(CCN4CC3CC3)[C@H]2O6)[C@@H](O)[C@@H](O)[C@@H]1O`: 126 %·min, 599 A% min-1, 266 A% min-1, 3.5 nM and 0.06 nM.
Consider `C=CCN1CC[C@]23c4c5ccc(O)c4O[C@H]2[C@@H](O[C@@H]2O[C@@H](C(=O)O)[C@@H](O)[C@H](O)[C@@H]2O)C=C[C@H]3[C@H]1C5`, for which the AUEC in the experiment on Mus musculus [1] amounted to 221 %·min; in the experiment with Mus musculus [4] it was 147 A% min-1; in the experiment with Mus musculus [5], 492 A% min-1. Besides, the Ki at Mu-type opioid receptor [2] is 10 nM; on Mu-type opioid receptor [3], 0.2 nM.
In the case of `CN1CC[C@]23c4c5ccc(O)c4O[C@H]2[C@@H](O)C=C[C@H]3[C@H]1C5` [MORPHINE], the AUEC in the experiment with Mus musculus [4] was 1987 A% min-1.
Take `COc1ccc2c3c1O[C@H]1[C@@H](O[C@@H]4O[C@@H](C(=O)O)[C@@H](O)[C@H](O)[C@@H]4O)C=C[C@H]4[C@@H](C2)N(C)CC[C@@]341`: the Ki at Mu-type opioid receptor [2] worked out at 5700 nM; on Mu-type opioid receptor [3] it was 85 nM.
Turning to `O=C(O)[C@@H]1O[C@@H](O[C@H]2C=C[C@H]3[C@H]4Cc5ccc(O)c6c5[C@@]3(CCN4)[C@H]2O6)[C@@H](O)[C@@H](O)[C@@H]1O`, the results for the AUEC in the experiment with Mus musculus [1], in the experiment on Mus musculus [4] and in the experiment on Mus musculus [5] were 393 %·min, 1614 A% min-1 and 2487 A% min-1, respectively. For the same compound, the values for the Ki on Mu-type opioid receptor [2] and at Mu-type opioid receptor [3] were 37 nM and 0.98 nM, respectively.
As for `CC1OC(O[C@H]2C=C[C@H]3[C@H]4Cc5ccc(O)c6c5C3(CCN4C)[C@H]2O6)C(O)C(O)C1O` (some centres undefined), the AUEC in the experiment with Mus musculus [1] was found to be 421 %·min; in the experiment on Mus musculus [4], 250 A% min-1. The Ki at Mu-type opioid receptor [2] came to 6.2 nM; at Mu-type opioid receptor [3], 0.17 nM.
Consider `CN1CCC23c4c5ccc(O)c4O[C@H]2[C@@H](OC2OC(CO)[C@H](O)C(O)C2O)C=C[C@H]3[C@H]1C5` (some centres undefined), for which the AUEC was 682 %·min with Mus musculus [1], 686 A% min-1 with Mus musculus [4] and 2397 A% min-1 in the experiment on Mus musculus [5]. The figures for the Ki on Mu-type opioid receptor [2] and at Mu-type opioid receptor [3] were 4.8 nM and 1.2 nM, respectively.
Take `CN1CCC23c4c5ccc(O)c4O[C@H]2[C@@H](O[C@@H]2O[C@@H](CO)[C@@H](O)[C@H](O)[C@@H]2O)CC[C@H]3[C@H]1C5`: the AUEC is 1490 %·min in the experiment on Mus musculus [1] and 2701 A% min-1 with Mus musculus [4]. Moreover, the Ki at Mu-type opioid receptor [2] was 2.5 nM; at Mu-type opioid receptor [3], 0.21 nM.
With `CN1CC[C@]23c4c5ccc(O)c4O[C@H]2[C@@H](O[C@@H]2O[C@H](C(=O)O)C[C@H](O)[C@@H]2O)C=C[C@H]3[C@H]1C5`, the results for the AUEC in the experiment on Mus musculus [1], in the experiment on Mus musculus [4] and in the experiment with Mus musculus [5] were 35 %·min, 80 A% min-1 and 380 A% min-1, respectively. Also, the values for the Ki at Mu-type opioid receptor [2] and on Mu-type opioid receptor [3] were 172 nM and 0.6 nM, respectively.
As for `CN1CCC23c4c5ccc(O)c4O[C@H]2[C@@H](OC2C=CC(O)C(C(=O)O)O2)C=C[C@H]3[C@H]1C5` (some centres undefined), the AUEC with Mus musculus [1] was 491 %·min; with Mus musculus [4], 130 A% min-1. The Ki on Mu-type opioid receptor [2] amounted to 178 nM; on Mu-type opioid receptor [3], 3.2 nM. In addition, the Activity in the experiment with Mus musculus [5] was found to be 851 A% min-1.
Consider `CN1CC[C@]23c4c5ccc(O)c4O[C@H]2[C@@H](OC2OC(CO)[C@H](O)C(O)C2O)C=C[C@H]3[C@H]1C5` (some centres undefined), for which the AUEC with Mus musculus [1] is on record as 1130 %·min; in the experiment on Mus musculus [4], 2283 A% min-1. In addition, the Ki at Mu-type opioid receptor [2] came to 3.2 nM; on Mu-type opioid receptor [3], 0.28 nM.
For the compound `O=C(O)CN1CC[C@]23c4c5ccc(O)c4O[C@H]2[C@@H](O[C@@H]2O[C@@H](C(=O)O)[C@@H](O)[C@H](O)[C@@H]2O)C=C[C@H]3[C@H]1C5`, the AUEC turned out to be 266 %·min with Mus musculus [1], 45 A% min-1 in the experiment with Mus musculus [4] and 322 A% min-1 in the experiment with Mus musculus [5]. In addition, the results for the Ki at Mu-type opioid receptor [2] and on Mu-type opioid receptor [3] were 1620 nM and 33 nM, respectively.
Regarding `CN1CC[C@]23c4c5ccc(O)c4O[C@H]2[C@@H](O[C@@H]2O[C@H](C(=O)O)[C@@H](O)[C@H](O)[C@H]2O)C=C[C@H]3[C@H]1C5` [MORPHINE GLUCURONIDE], the Ki on Mu-type opioid receptor [2] was found to be 26 nM; on Mu-type opioid receptor [3], 1.5 nM. Besides, in the experiment on Mus musculus [4], the AUEC stood at 1359 A% min-1.
Consider `CN1CCC23c4c5ccc(O)c4O[C@H]2[C@@H](OC2CCCC(C(=O)O)O2)C=C[C@H]3[C@H]1C5` (some centres undefined), for which the AUEC in the experiment on Mus musculus [1] is 230 %·min; with Mus musculus [4], 26 A% min-1; with Mus musculus [5], 478 A% min-1. For the same compound, the results for the Ki at Mu-type opioid receptor [2] and at Mu-type opioid receptor [3] were 168 nM and 0.51 nM, respectively.
Take `CN1CCC23c4c5ccc(O)c4O[C@H]2[C@@H](OC2OC(C(=O)O)=CC(O)C2O)C=C[C@H]3[C@H]1C5` (some centres undefined): the AUEC in the experiment with Mus musculus [1] is listed as 651 %·min; in the experiment with Mus musculus [4], 759 A% min-1; with Mus musculus [5], 701 A% min-1. The results for the Ki at Mu-type opioid receptor [2] and at Mu-type opioid receptor [3] were 48 nM and 1.4 nM, respectively.
With `CN1CC[C@]23c4c5ccc(O)c4O[C@H]2[C@@H](OC2O[C@@H](C(=O)O)CC(O)C2O)C=C[C@H]3[C@H]1C5` (some centres undefined), the values for the AUEC in the experiment on Mus musculus [1] and with Mus musculus [4] were 18 %·min and 365 A% min-1, respectively. In addition, the figures for the Ki at Mu-type opioid receptor [2] and at Mu-type opioid receptor [3] were 57 nM and 1.9 nM, respectively. Further, the Activity in the experiment with Mus musculus [5] worked out at 1046 A% min-1.
For `CN1CCC23c4c5ccc(O)c4O[C@H]2[C@@H](O[C@@H]2O[C@@H](C(=O)O)[C@@H](O)[C@H](O)[C@@H]2O)CC[C@H]3[C@H]1C5`, the AUEC in the experiment with Mus musculus [1] is recorded as 1667 %·min; in the experiment on Mus musculus [4], 1885 A% min-1. The Ki at Mu-type opioid receptor [2] was 5.7 nM; at Mu-type opioid receptor [3], 0.25 nM.
For the compound `O=C(O)[C@@H]1O[C@@H](O[C@H]2CC[C@H]3[C@H]4Cc5ccc(O)c6c5[C@@]3(CCN4)[C@H]2O6)[C@@H](O)[C@@H](O)[C@@H]1O`, the values for the AUEC in the experiment with Mus musculus [1] and in the experiment with Mus musculus [4] were 2196 %·min and 2461 A% min-1, respectively.

The record behind these values is ChEMBL document CHEMBL1136668, “Structure-activity relationships of some opiate glycosides” (Bioorg Med Chem Lett, 2003).
